Measured values from patent US20220306585A1, “PYRAZOLE DERIVATIVES FOR CONTROLLING ARTHROPODS” (Bayer Animal Health GmbH, priority 2019, published 2022).
Converted amounts (≈) assume the structure as drawn.

Assays:
[1] = system: Dermacentor variabilis nymph; test: Antiparasitic activity after administration to rats: ticks; format: in vivo; conditions: Dermacentor variabilis nymph; for In-vivo Efficacy SD2: study day 2; for In-vivo Efficacy SD9: study day 9; for In-vivo Efficacy SD16: study day 16; for In-vivo Efficacy SD23: study day 23; for In-vivo Efficacy SD30: study day 30; for In-vivo Efficacy SD37: study day 37; for In-vivo Efficacy SD42: study day 42
Protocol: (§1) Measurement of the Antiparasitic Activity after Administration of a Prodrug to Rats Compounds were dissolved in the appropriate volume of glycerol formal (p.a.) just before application to the animals (dose volume was adjusted to 0.03 mL/kg bodyweight). 5 rats per group were either injected intraperitoneally or subcutaneously. Rats were infested with 30 Dermacentor variabilis nymphs on study days −2, 7, 14, 21, 28, 35 and 30 adult Ctenocephalides fleas on study days −1, 8, 15, 22, 29, 36. Parasite counts were performed on study days 2, 9, 16, 23, 30, 37. Percent efficacy was calculated as arithmetic mean parasite numbers as life attached tick numbers and live flea numbers of the respective study group in comparison to parasite counts on a placebo-treated control group. Infestation of groups with less than 75% efficacy on two consecutive counting occasions will terminated for the respective parasite.

[2] = Evaluation of pharmacokinetics in vivo (rat); conditions: concentration of Parent Drug A after admin. of the named substance
Protocol: Evaluation of Pharmacokinetics (In Vivo) To evaluate the pharmacokinetics of test substances in vivo, these test substances are dissolved in appropriate formulation vehicles (ethanol, dimethyl sulfoxide, PEG400, glycerol formal etc.), or mixtures thereof. The test substances are then administered to rats or dogs intravenously, orally or subcutaneously. The intravenous application is performed as bolus. Administered doses range usually between 0.1 to 5 mg/kg, however, doses for subcutaneous and oral administration can exceed this range up to doses of 30 mg/kg. Blood samples are retrieved via a catheter, exsanguination or venous puncture in vials containing appropriate anticoagulants, such as lithium heparinate or potassium EDTA. Plasma is generated from the blood via centrifugation. Blood samples are taken over an appropriate time interval, usually lasting up to 144 h after administration. If necessary, samples from later time points can also be taken. If possible, time points are chosen so that the initial absorption phase, the maximum plasma concentration (Cmax), and exposure within a certain time interval (AUC(0-t))aer described. Furthermore, it is possible to also retrieve organ-, tissue- and urine samples. The quantitative measurement of the test substances in the samples is performed using calibration curves in the respective matrices. The protein content of the samples is precipitated using acetonitrile or methanol. Thereafter, the samples are separated using HPLC in combination with reversed phase chromatography columns. The HPLC system is coupled to a triple quadrupole mass spectrometer via an electrospray interface. The evaluation of the plasma concentration/time profiles are afterwards evaluated using a validated pharmacokinetics evaluation program. […] Relative bioavailability (Frel) was used to describe the exposure of parent drug after prodrug administration compared to the exposure of parent drug after direct administration of compound A which was normalised to 100%.

[3] = Degradation of prodrugs and release of parent drug in rat plasma; format: in vitro ADME; conditions: male, Hannover-Janvier RjHan, rat plasma (Li-heparin), 37° C., percent area of prodrug at t0
Protocol: Measurement of Release of Parent Drug in Rat Plasma 1 mg of the test compound was dissolved in 0.5 mL acetonitrile/dimethylsulfoxide 9:1. For complete dissolution the HPLC vial was shaken and treated with ultrasound. 20 μL of this solution were added to 1 mL of rat plasma (Li-heparin plasma, Hannover-Janvier rat, RjHan male) with vortexing at a temperature of 37° C. Aliquots (100 μL each) were taken at 0.17, 0.5, 1, 1.5, 2 and 4 hours. Each aliquot was transferred to a vial containing 300 μL of acetonitrile/citric acid buffer pH 3 8:2. These solutions were centrifuged at 5000 rpm for 10 minutes. The supernatant was analysed by HPLC (Method 8) to determine the amount of the test compound. In addition, the reaction mixture was analysed by method 9 (HPLC-MS) at the final timepoint. Both decrease of the prodrug concentration and increase of parent drug concentration were monitored. All data is given as percent area of the prodrug at to.

[4] = system: Ctenocephalides felis adult; test: Antiparasitic activity after administration to rats: fleas; format: in vivo; conditions: Ctenocephalides felis adult; for In-vivo Efficacy SD2: study day 2; for In-vivo Efficacy SD9: study day 9; for In-vivo Efficacy SD16: study day 16; for In-vivo Efficacy SD23: study day 23; for In-vivo Efficacy SD30: study day 30; for In-vivo Efficacy SD37: study day 37; for In-vivo Efficacy SD42: study day 42
Protocol: as §1

[5] = Measurement of stability of prodrugs in buffer at pH 7.4; format: physicochemical; conditions: PBS buffer pH 7.4, 37° C., HPLC peak area, read-out: % Recovery after 24 h (stability at pH 7.4)
Protocol: Preparation of the PBS buffer solution pH 7.4: 90 g sodium chloride, 13.61 g potassium dihydrogen phosphate, 83.35 g 1M aqueous sodium hydroxide were dissolved in water. More water was added up to a total volume of 1 L. This solution was diluted 1:10 with water. Eventually, pH was adjusted to pH 7.4 by the addition of phosphoric acid.
Measurement of Stability of Prodrugs in Buffer at pH 7.4
0.15 mg of the test compound were dissolved in 0.1 mL dimethylsulfoxide and 0.4 mL acetonitrile. For complete dissolution, the HPLC vial with the sample solution was shaken and treated with ultrasound. Then, 1.0 mL of PBS buffer solution pH 7.4 was added and the sample was vortexed. The sample solution was analysed by HPLC (method 8) to determine the amount of the test compound at a particular time over a period of 24 h at 37° C. The peak areas, given as percentage of total area, are used for quantification. In addition, the reaction mixture was analysed by method 9 (HPLC-MS) at the final timepoint.

[6] = Measurement of solubility in buffer at pH 6.5; format: physicochemical; conditions: aqueous buffer, kinetic from dmso stock; PBS buffer pH 6.5, shaken 24 h at rt, LC-MSMS; read-out: Solubility of example compounds at pH 6.5
Protocol: Measurement of Solubility in Buffer at pH 6.5 2-4 mg of the test compound are dissolved in DMSO to reach a concentration of 50 g/L (solution A). To 10 μL of this solution 960 μL PBS buffer pH 6.5 are added (final concentration: […]); the mixture is shaken for 24 h at rt in a 96 well plate. An aliquot is centrifuged at 42000 rpm für 30 min. The supernatant is diluted with acetonitrile/water (8:2) 1:10 and 1:1000 resp. This diluted samples are analyzed by LC-MSMS. Calibration: 10 μL of solution A are diluted with 823 μL DMSO (final concentration: 600 μg/mL), which is further diluted with acetonitrile/water 8:2 by a factor of 100 (provides solution B). The calibration curve is obtained from solution B by further diluting with acetonitrile/water 8:2 with target concentrations of 1.2-12-60-600 ng/mL and injecting these four solutions for MS measurement. PBS-Puffer: 6.18 g sodium chloride and 3.96 g sodium dihydrogen phosphate are dissolved in 1 L aqua dist., the pH is adjusted to 6.5 with IN sodium hydroxide.

Compound: N#CC1(N(COC(=O)CCC(=O)O)C(=O)c2cc(-c3cnn(-c4c(Cl)cc(C(F)(C(F)(F)F)C(F)(F)F)cc4OC(F)(F)F)c3)ccc2Cl)CC1 [Example 8, 4-{[(2-Chloro-5-{1-[2-chloro-4-(1,1,1,2,3,3,3-heptafluoropropan-2-yl)-6-(trifluoromethoxy)phenyl]-1H-pyrazol-4-yl}benzoyl)(1-cyanocyclopropyl)amino]methoxy}-4-oxobutanoic acid]
- In-vivo Efficacy SD2 ([1]; 12.00 mg/kg sc): 100%
- In-vivo Efficacy SD9 ([1]; 12.00 mg/kg sc): 100%
- In-vivo Efficacy SD16 ([1]; 12.00 mg/kg sc): 99%
- In-vivo Efficacy SD23 ([1]; 12.00 mg/kg sc): 100%
- In-vivo Efficacy SD30 ([1]; 12.00 mg/kg sc): 100%
- In-vivo Efficacy SD37 ([1]; 12.00 mg/kg sc): 100%
- In-vivo Efficacy SD42 ([1]; 12.00 mg/kg sc): 92%
- AUC(0-144 h)norm of parent drug A ([2]; iv bolus): 12 kg·h/L
- AUC(0-144 h)norm of parent drug A ([2]; sc): 6.7 kg·h/L
- recovery at 0.17 h, 39 µg/mL [3]: 96%
- recovery at 0.5 h, 39 µg/mL [3]: 95%
- recovery at 1 h, 39 µg/mL [3]: 93%
- recovery at 1.5 h, 39 µg/mL [3]: 92%
- recovery at 2 h, 39 µg/mL [3]: 90%
- recovery at 4 h, 39 µg/mL [3]: 86%
- In-vivo Efficacy SD2 ([4]; 12.00 mg/kg sc): 100%
- In-vivo Efficacy SD9 ([4]; 12.00 mg/kg sc): 99%
- In-vivo Efficacy SD16 ([4]; 12.00 mg/kg sc): 100%
- In-vivo Efficacy SD23 ([4]; 12.00 mg/kg sc): 100%
- In-vivo Efficacy SD30 ([4]; 12.00 mg/kg sc): 97%
- In-vivo Efficacy SD37 ([4]; 12.00 mg/kg sc): 88%
- In-vivo Efficacy SD42 ([4]; 12.00 mg/kg sc): 78%
- recovery at 24 h, 0.1 mg/mL [5]: 95%
- solubility at 24 h [6]: 12 µg/mL (≈ 15.4 µM)

Compound: N#CC1(N(COC(=O)Cc2ccc(C(=O)O)cc2)C(=O)c2cc(-c3cnn(-c4c(Cl)cc(C(F)(C(F)(F)F)C(F)(F)F)cc4OC(F)(F)F)c3)ccc2Cl)CC1 [Example 15, 4-(2-{[(2-Chloro-5-{1-[2-chloro-4-(1,1,1,2,3,3,3-heptafluoropropan-2-yl)-6-(trifluoromethoxy)phenyl]-1H-pyrazol-4-yl}benzoyl)(1-cyanocyclopropyl)amino]methoxy}-2-oxoethyl)benzoic acid]
- In-vivo Efficacy SD2 ([1]; 12.96 mg/kg sc): 100%
- In-vivo Efficacy SD9 ([1]; 12.96 mg/kg sc): 100%
- In-vivo Efficacy SD16 ([1]; 12.96 mg/kg sc): 100%
- In-vivo Efficacy SD23 ([1]; 12.96 mg/kg sc): 100%
- In-vivo Efficacy SD30 ([1]; 12.96 mg/kg sc): 100%
- In-vivo Efficacy SD37 ([1]; 12.96 mg/kg sc): 100%
- In-vivo Efficacy SD42 ([1]; 12.96 mg/kg sc): 96%
- recovery at 0.17 h, 39 µg/mL [3]: 94%
- recovery at 0.5 h, 39 µg/mL [3]: 81%
- recovery at 1 h, 39 µg/mL [3]: 62%
- recovery at 1.5 h, 39 µg/mL [3]: 47%
- recovery at 2 h, 39 µg/mL [3]: 36%
- recovery at 4 h, 39 µg/mL [3]: 10%
- In-vivo Efficacy SD2 ([4]; 12.96 mg/kg sc): 100%
- In-vivo Efficacy SD9 ([4]; 12.96 mg/kg sc): 100%
- In-vivo Efficacy SD16 ([4]; 12.96 mg/kg sc): 100%
- In-vivo Efficacy SD23 ([4]; 12.96 mg/kg sc): 99%
- In-vivo Efficacy SD30 ([4]; 12.96 mg/kg sc): 96%
- In-vivo Efficacy SD37 ([4]; 12.96 mg/kg sc): 81%
- In-vivo Efficacy SD42 ([4]; 12.96 mg/kg sc): 75%
- recovery at 24 h, 0.1 mg/mL [5]: 100%
- solubility at 24 h [6]: 5 µg/mL (≈ 5.94 µM)
